According to US20220160680A1, “MICROORGANISM MIXTURES, MOLECULES DERIVED THEREFROM, AND METHODS OF USE THEREOF” (B. G. Negev Technologies and Applications Ltd., at …, priority 2018, published 2022):
“Also recorded” adds a separate entry of the source.

What was measured:
[1] = tested on: Agrobacterium tumefaciens A136; test: Quorum sensing bioluminescence reporter assay; assay type: cell-based; conditions: C8 (3-oxo-C8-HSL) autoinducer
Protocol: Agrobacterium tumefaciens A136 pCF218 pMV26 culture was grown in Luria-Bertani broth (LB; Miller's broth) supplemented with 25 μg/ml of kanamycin and 4.5 μg/ml of tetracycline at 28-30° C. for 24 h. […] The overnight cultures were diluted to an absorbance density (OD600) of 0.05 by fresh LB medium. […] Luminescence was measured every 20 min for 19 h with continuous shaking at 30° C., using a Microtiter Plate Reader (Varioskan Flash, Thermo). Average luminescence values divided by OD600 values were plotted against the added compound concentration.
The effect of the Kefir biomass crude extract molecules on the following bacteria, A. tumefaciens A136, V. cholerae MM920 and V. harveyi MM30 were measured as described by Brenier et al. (2008). […]

[2] = tested on: Pseudomonas aeruginosa LasR; test: Quorum sensing bioluminescence reporter assay; assay type: cell-based; conditions: C12 AI
Protocol: (§1) FIGS. 8A-8E are vertical bar graphs showing bioluminescence screening of quorum sensing (QS) inhibition or activation in the presence of synthetic Tryptophol acetate. The assay was performed using mutant bacteria lacking genes encoding autoinducers. Bacteria were also cloned with a bioluminescence reporter plasmid. N-acyl Homoserine Lactone (AHL) was used for activation (agonist) or inhibition (antagonist) of the following bacteria: Agrobacterium tumefaciens, which responds to the C8 autoinducer (AI), Vibrio cholerae responds to the CAI1 autoinducer, Pseudomonas aeruginosa RhlA responds to the C4 AI and Pseudomonas aeruginosa LasR responds to the C12 AI.
(§2) Bioluminescence assay was performed with mutant bacteria lacking the nucleotide sequences encoding the relevant autoinducers (AI). Additionally, the bacteria were cloned with bioluminescence reporter plasmids in order to measure their luminescence intensity when quorum sensing gene expression occurs. Ninety-six (96) well microtiter plate assays were used to assess AI activation (agonist) or inhibition (antagonist) of the following bacteria: Agrobacterium tumefaciens, which responds to the C8 autoinducer, and both Vibrio cholerae and Vibrio harveyi, which respond to the (S)-4,5-dihydroxy-2,3-pentanedione (DPD) autoinducer to communicate.

[3] = tested on: Pseudomonas aeruginosa RhlA; test: Quorum sensing bioluminescence reporter assay; assay type: cell-based; conditions: C4 AI, high volume
Protocol: as §1, §2

P. aeruginosa (PA01) = test: Static biofilm assay (CLSM); assay type: cell-based, Pseudomonas aeruginosa; conditions: 20 μM
Protocol: (§3) For static biofilm assay, overnight cultures of P. aeruginosa (PA01), Salmonella and Staphylococcus aureus strains were diluted 1:10 in fresh LB medium containing a final concentration of synthesized molecule (203) of 20 or 50 μM, or DMSO (up to 1%) as control. Biofilms were grown under non-shaking conditions at 37° C. in 96-well plate (Thermo Scientific, Rochester, N.Y., USA). […] The stained cells were washed twice with PBS. Biofilm images were taken by CLSM (Plan-Apochromat 20×/0.8 M27, Zeiss LSM880, Germany).
(§4) P. aeruginosa PA01, Salmonella and Staphylococcus aureus strains were incubated for 24 hr at 37° C. The bacterial suspension was diluted 1:10 with fresh LB and incubated for 3 h with the kefir biomass crude extract molecules or with DMSO as a control (refreshment sample). In all cultures, DMSO concentration was up to 1% (v/v). 200 μl of the broth medium mix with yogurt extract or with DMSO as control were placed in each well of a 96-well plate (Thermo Scientific, Rochester, N.Y., USA). 2 μl refreshment samples were added to each suitable well. The plate incubated for 24 hr at 37° C. After the incubation the samples washed three times with PBS. For visualizing of viable cells, the bacteria were stained green and dead cells stained red using the BacLight® Dead/Live Kit (Invitrogen, Eugene, Oreg., USA). The stained cells were washed twice with PBS. […]

Salmonella = test: Static biofilm assay (CLSM); assay type: cell-based, Salmonella enteritidis; conditions: 50 μM
Protocol: as §3, §4

Staphylococcus aureus = test: Static biofilm assay (CLSM); assay type: cell-based; conditions: 50 μM
Protocol: as §3, §4

[4] = tested on: P. aeruginosa (PA01), Salmonella and Staphylococcus aureus strains; test: Bacterial cell growth/viability (BacLight Dead/Live); assay type: cell-based
Protocol: as §3, §4

amyloid beta (αβ1-42) [5] = molecular target: T1, amyloid beta (αβ1-42) (Homo sapiens, UniProt P05067); test: Thioflavin T (ThT) assay; assay type: biochemical; conditions: 30 μM amyloid beta, 12 hours of incubation
T1 construct: samples containing 30 μM amyloid beta [4(1-42)] in the absence or presence of tryptophol acetate
Protocol: ThT fluorescence measurements were taken at 37° C. using 96-well black plate on a Biotek Synergy H1 plate reader. Measurements were made on a samples containing 30 μM amyloid beta [4(1-42)] in the absence or presence of tryptophol acetate in different concentrations. A 120-μL aliquot of the aggregation reaction was mixed with 10 μM ThT in phosphate buffer (pH 7.4). The fluorescence intensity was measured every 30 min for 24 hr at λ excitation (λex)=440 and λ emission (λem)=485 nm.

amyloid beta (αβ1-42) [6] = molecular target: T1, amyloid beta (αβ1-42); test: Surface plasmon resonance, anti-amyloid oligomer antibody chip; assay type: binding; conditions: 30 μM αβ1-42, 6-200 μM
Protocol: SPR sensor chip with Oligomer All antibody, an anti-amyloid oligomer conformation-specific antibody was tested with samples containing 30 μM 4(1-42) in the absence or presence of tryptophol acetate in different concentrations.

amyloid beta (αβ1-42) [7] = molecular target: T1, amyloid beta (αβ1-42); test: Transmission electron microscopy of fibrillation; assay type: biochemical; conditions: 24 hr, 37° C.
Protocol: TEM grids were prepared after 24 hr incubation at 37° C. of samples containing 30 μM 4(1-42) in the absence or presence of tryptophol acetate in different concentrations.

T1 sequence (P05067 672-713 limits assumed): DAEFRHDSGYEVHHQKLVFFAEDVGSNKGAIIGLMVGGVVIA

## CC(=O)OCCc1c[nH]c2ccccc12 [Tryptophol acetate]
[1]
  Effect on QS in A. tumefaciens: inhibits QS
[2]
  Effect on QS in P. aeruginosa (LasR): low inhibition effect
[3]
  Effect on QS in P. aeruginosa (RhlA): low inhibition effect
P. aeruginosa (PA01)
  Biofilm formation, P. aeruginosa: did not seem to affect biofilm formation; also recorded: No influence
Salmonella
  Biofilm formation, Salmonella: significant influence on biofilm formation
Staphylococcus aureus
  Biofilm formation, Staphylococcus aureus: significant influence on biofilm formation
[4]
  Bacterial cell growth / viability: did not impact cell growth
Amyloid beta (αβ1-42) [5]
  Amyloid beta fibrillation (ThT): effectively reduced amyloid beta fibrillation; also recorded: reduced αβ1-42 fibrillation
Amyloid beta (αβ1-42) [6]
  Inhibition of amyloid beta (SPR): dose dependent manner
Amyloid beta (αβ1-42) [7]
  Fibrillation formation (TEM): significantly inhibited
